Paper PMC9101728, “Isolation and HPLC Quantitative Determination of 5α-Reductase Inhibitors from Tectona grandis L.f. Leaf Extract” (Molecules, 2022)
pIC50: −log10 of the molar value. Several values for one entry are separate records, joined by “and”; a condition that tells them apart may be missing. Equal entries are not always repeated. Where two headings read alike, the source gives them in different places.

Experiments:
5α-reductase [1] = molecular target: T1, 5α-reductase (Homo sapiens, UniProt P18405); test: Enzymatic 5α-reductase inhibition assay (conversion of testosterone to DHT, LC-MS), crude enzyme from LNCaP cells; type: biochemical; parameters: adding 80 µL of homogenized crude enzyme (equivalent to 75 µg protein); host or cells: LNCaP cells, sonicated homogenate used as crude enzyme; conditions: for IC50: isolated compounds, LNCaP cell crude enzyme, mean ± SD of triplicate, read-out: IC50 against 5α-reductase (converted); for 5α-reductase inhibitory activity (in words): qualitative statement
T1 sequence (P18405 1-259): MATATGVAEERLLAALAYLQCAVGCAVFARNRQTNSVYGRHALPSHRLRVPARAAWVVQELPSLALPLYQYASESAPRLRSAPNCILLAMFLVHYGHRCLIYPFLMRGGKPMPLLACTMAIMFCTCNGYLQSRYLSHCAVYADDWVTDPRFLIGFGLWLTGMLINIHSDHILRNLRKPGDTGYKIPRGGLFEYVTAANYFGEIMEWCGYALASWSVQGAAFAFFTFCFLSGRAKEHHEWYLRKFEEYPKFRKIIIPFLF
Experimental: The steroid 5α-reductase inhibitory activity of samples on the conversion of testosterone to DHT was determined using LNCaP cell as a source of enzyme.
5α-reductase was prepared as a crude enzyme from the androgen-dependent LNCaP cells (ATCC® CRL-1740^TM) using the procedure as described by Fachrunniza et al., which was modified from Srivilai et al.. Briefly, the LNCaP cells were cultured in a 175 cm^2 culture flask at 37 °C under a 5% CO2 humidified atmosphere and cultured until reaching approximately 80% confluency. The medium was removed and the cells were rinsed with tris-HCl buffer solution, pH 7.4 (containing 10 mM Tris-HCl buffer; 50 mM KCl; 1 mM EDTA; 0.5 mM phenylmethanesulfonyl fluoride). The cells were then scraped off and centrifuged at 1900× g for 10 min. The cell pellets were collected and re-suspended in tris-HCl buffer solution pH 7.4 to a concentration of ≥9 × 10^7 cells/mL and the resultant cell pellets were kept in an ice bath and homogenized using a sonication probe. The total protein content in the homogenized crude enzyme was not less than 75 µg protein equivalent in this 5α-reductase inhibitory assay, which was measured using the Pierce bicinchoninic acid (BCA) protein assay (Pierce, Rockford, IL, USA).
The in vitro inhibitory activity of the samples against the conversion of testosterone to DHT by 5α-reductase was carried out according to the method described by Srivilai et al.. The DHT formation after the enzymatic reaction was determined using liquid chromatography mass spectrometry (LC-MS) to measure 5α-reductase activity. […] In the assay, the reaction was performed in U-shaped 96-deep-well plates covered by well-cap mats to create a solution that contained 10 µL of the tested sample dissolved in dimethyl sulfoxide (DMSO), 20 µL of testosterone (34.7 µM in propylene glycol and water), and 50 µL of β-nicotinamide adenine dinucleotide phosphate (NADPH, 1 mM in tris-HCl buffer pH 7.4). The enzymatic reaction was started by adding 80 µL of homogenized crude enzyme (equivalent to 75 µg protein), and the final volume was adjusted to 200 µL by adding 40 µL of tris-HCl buffer pH 7.4. The reaction was maintained in a water bath with a shaker at 37 °C for 60 min and then the reaction was stopped by adding 300 µL of hydroxylamine hydrochloride (HM) (10 mg/mL in 80% v/v ethanol). The solution was then incubated for another 60 min at 60 °C to completely derivatize all the DHT that was produced. After incubation, the solution was centrifuged at 1700× g for 10 min and the supernatant was collected for quantitated DHT production by LC-MS. Two control groups, C0 and C60, were prepared with all the solutions, including 10 µL of DMSO, but no test sample. Control group C0 was stopped (by adding HM) before the enzymatic incubation at 0 min, while the control group C60 continued with the enzymatic reaction and was stopped after 60 min of incubation. The DHT production was determined using LC-MS. The inhibition of tested sample was determined by measuring the area under the curve (AUC) of extracted ion chromatogram (EIC) of derivatized-DHT (m/z [M + H]^+, 306.2428) which was used to calculate the enzymatic reaction inhibition by the following Equation (1):(1) 5α-reductase inhibitory activity (%)= [1 −AUC of sample−AUC of C0/AUC of C60 −AUC of C0] ×100

5α-reductase [2] = molecular target: T1, 5α-reductase; conditions: read-out: IC50 against 5α-reductase; positive controls; same assay system; cited from earlier work

IC50 (5α-reductase [1]) [µM]	5α-reductase inhibitory activity (in words) (5α-reductase [1])	Compound	pIC50 (5α-reductase [2])
14.6	potent 5α-reductase inhibitory activity	CC1=CC[C@H]2C(C)(C)CCC[C@]2(C)[C@H]1CC/C(C)=C/C(=O)O [Compound 2, (+)-eperua-7,13-dien-15-oic acid]	–
14.2	potent 5α-reductase inhibitory activity	CC1=C(CC/C(C)=C/C(=O)O)[C@@]2(C)CCCC(C)(C)[C@@H]2CC1 [Compound 1, (+)-eperua-8,13-dien-15-oic acid]	–
–	–	CC(C)(C)NC(=O)[C@H]1CC[C@H]2[C@@H]3CC[C@H]4NC(=O)C=C[C@]4(C)[C@H]3CC[C@]12C [Finasteride]	6.12 and 6.14
> 400	weak inhibitory activity	C=C(C)[C@@H]1CC[C@]2(C)CC[C@]3(C)[C@H](CC[C@@H]4[C@@]5(C)CC[C@H](O)C(C)(C)[C@@H]5CC[C@]43C)[C@@H]12 [Compound 3, lupeol]	–
